In brackets after ≈: the same amount, converted by molar mass. Where two headings read alike, the source gives them in different places.
Legend:
[1] = Solubility in water, FaSSIF and FeSSIF; type: physicochemical
[2] = system: PGF2α-induced myometrial contractility; test: PGF2α-induced contractions of human myometrial biopsies (myograph); conditions: 6, 60, 600, 6000 nM
Procedure: Experiments were performed using a DMT Myograph 800 MS (ADINSTRUMENTS™) in oxygenated Kreb's solution with ADI Powerlab software. Once regular contractions had been established for at least 20 minutes, baseline measurements of spontaneous contraction frequency were recorded. The measurement of spontaneous contraction frequency is represented on the x-axis as “Spon.” A DMSO control or compound II was then added to each myometrial sample at the indicated concentrations and the effects of control or compound II on contractile frequency were measured over the ensuing 10-minute period. This time point is represented on the x-axis as “Compound II.” The effects of compound II on contractile frequency in the presence of PGF2α were subsequently measured by challenging the myometrial tissue samples with increasing concentrations of PGF2α (1 nM, 10 nM, and 100 nM) at sequential 10-minute intervals. […] Once regular contractions had been established for at least 20 minutes, baseline measurements of spontaneous work done per contraction were recorded. The measurement of spontaneous work done per contraction is represented on the x-axis as “Spon.” A DMSO control or compound II was then added to each myometrial sample at the indicated concentrations and the effects of control or compound II on work done per contraction were measured over the ensuing 10-minute period. […]

With `O=C(N[C@@H](CCO)c1ccc(F)cc1)[C@@H]1SCCN1S(=O)(=O)c1ccc(-c2ccccc2)cc1` [Compound II, 3-([1,1′-biphenyl]-4-ylsulfonyl)-N-[1-(4-fluorophenyl)-3-hydroxypropyl]-1,3-thiazolidine-2-carboxamide] the solubility ([1]; FaSSIF, pH 6.5 (fasted state), read-out: Solubility in FaSSIF pH 6.5) was 0.4 µg/mL (≈ 0.799 µM), the solubility ([1]; FeSSIF, pH 5.0 (fed state), read-out: Solubility in FeSSIF pH 5.0) was 10 µg/mL (≈ 20 µM) and the “Effect on PGF2α-induced myometrial contractility” value [2] was “suppressing both PGF2α-induced and OT-induced myometrial contractility in a dose-dependent fashion”.

— US11524003B2, “Alpha-amino esters of hydroxypropylthiazolidine carboxamide derivative and salt form, crystal polymorph thereof” (ObsEva S.A., priority 2016, dated 2022)
